Reference: patent US10041937B2, “Macrophage identification agent, and identification method, sorting method, evaluation method, screening method and kit using the macrophage identifier agent” (CANON KABUSHIKI KAISHA, priority 2013, dated 2018)
Entries after “also recorded” stand apart in the source; their conditions may differ.

Key:
[1] = tested on: M1 macrophages and M2 macrophages differentiated from THP-1 cells; assay: Identification of macrophage subtypes differentiated from human cell line THP-1; assay type: cell-based; details: for Resolution ratio R / Evaluation of macrophage subtype identification: M1 vs M2 macrophages differentiated from THP-1 cells; for Resolution ratio R: channel listed per compound (Table 6); for Evaluation of macrophage subtype identification: class based on resolution R (Table 6); for Peak position of M1 macrophage: THP-1-derived M1 macrophages; for Peak position of M1 macrophage / Peak position of M2 macrophage: fluorescence intensity peak by flow cytometry in the channel listed per compound (Table 6); for Peak position of M2 macrophage: THP-1-derived M2 macrophages; for Selectivity: subtype strongly stained, THP-1-derived macrophages (Table 6)
Procedure: The fluorescent signals derived from the compounds (3), (4), (6), (7), (9), (11) to (13), (15), (17), (19) to (26), (28), (30) to (33), (35), (36), (38), (42) to (45), (48) to (62), (65), (67), (74) to (76), (82), (83) and (85) and the comparative compounds (1) and (2) were measured in channels suitable to the respective compounds. Histograms were prepared by plotting fluorescence intensities obtained in the respective channels on the abscissa and plotting the numbers of cells at each fluorescence intensity on the ordinate. A difference between a fluorescence intensity (FM1) at a peak top of the histogram of the M1 macrophage and a fluorescence intensity (FM2) at a peak top of the histogram of the M2 macrophage is divided by a sum of a peak width (WM1) of the histogram of the M1 macrophage and a peak width (WM2) of the histogram of the M2 macrophage, so as to obtain a resolution R, which was used as an index of the identification ability for a subtype (see the following expression (1)). Resolution R=|FM1−FM2|/(WM1+WM2) Expression (1)
Based on the thus obtained values of the resolution R, the identification abilities for the subtypes of the compounds (3), (4), (6), (7), (9), (11) to (13), (15), (17), (19) to (26), (28), (30) to (33), (35), (36), (38), (42) to (45), (48) to (62), (65), (67), (74) to (76), (82), (83) and (85) and the comparative compounds (1) and (2) were evaluated as any of A to C according to the following criteria, and if the resolution R was 0.15 or more, the compound was determined to be good in the subtype identification.
The subtypes were identified by using the compound (1) in the same manner as in Example 1 except that the macrophage subtypes differentiated from the mouse bone marrow cells were changed to macrophage subtypes differentiated from a cell line established from human acute monocytic leukemia.
The culture of subtypes was performed with reference to NPL 10. Specifically, THP-1 cells purchased from JCRB Cell Bank of National Institute of Biomedical Innovation, that is, a cell line established from human acute monocytic leukemia, were subcultured several times, and the resultant cells were dispersed to a concentration of 5.0×10^5/mL in an RPMI1640 containing 10% FBS and 1% P/S, and 5.0×10^6 cells were seeded in a 100 mm dish. The monocytes were differentiated into macrophages by incubating the resultant in the presence of 5% CO2 at 37° C. for 2 days with 500 ng of PMA added thereto. After exchanging the medium, by adding 200 ng of interferon-γ and 1 μg of polyliposaccharide (both manufactured by Pepro Tech) to the medium, the cells were differentiated to the subtype M1. Besides, by adding 200 ng of IL-4 and IL-13, the cells were differentiated to the subtype M2. After incubation performed in the presence of 5% CO2 at 37° C. for 24 hours, the resultant was rinsed with PBS, and PBS containing 0.25% trypsin and 1 mM EDTA (ethylenediaminetetraacetic acid) was used for collecting, from the dish, the macrophages having been differentiated to the subtypes M1 and M2.
Specifically, fluorescent signals derived from the compounds (1) (3) (4) (12) and (15) were measured by using the channels which are appropriate for each of the compounds and the identification abilities for the subtypes of the compounds were evaluated based on the values of the resolution R.

[2] = tested on: M1 macrophages and M2 macrophages differentiated from mouse bone marrow cells; assay: Subtype identification by staining and flow cytometry of M1 and M2 macrophages differentiated from mouse bone marrow cells; assay type: cell-based, Balb/c mouse; details: for subtype more strongly stained: two compounds used in combination, each 1 μM
In short: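 Balb/c mouse bone marrow cells were differentiated to macrophages with 50 ng/mL M-CSF over two 3–4-day periods, then polarized for 3 days to M1 (interferon-γ plus polyliposaccharide) or M2 (IL-4). Live cells (aqua dye-negative) were analysed by flow cytometry; resolution R = |FM1−FM2|/(WM1+WM2) from histogram peak positions and widths indexed subtype discrimination.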

[3] = R=|FM1−FM2|/(WM1+WM2), compound 1 μM
[4] = fluorescence intensity at peak top of histogram, compound 1 μM, 37° C., 30 minutes

SMILES | Resolution ratio R [1] | Evaluation of macrophage subtype identification [1] | Peak position of M1 macrophage [1] | Peak position of M2 macrophage [1] | Selectivity [1] | Resolution ratio R [2, 3] | Peak position of M1 macrophage [2, 4] | Peak position of M2 macrophage [2, 4] | Evaluation of macrophage subtype identification ([2]; rated from resolution R) | difference in the staining intensity between the M1 macrophages and the M2 macrophages / identification ([1]; THP-1 derived) | difference in the staining intensity between the M1 macrophages and the M2 macrophages / identification ([2]; mouse bone marrow derived) | Resolution ratio R ([2]; M1 vs M2 macrophages from mouse bone marrow cells, general formula (6) dyes (Table 7)) | Evaluation of macrophage subtype identification ([2]; class based on resolution R, general formula (6) dyes (Table 7)) | Peak position of M1 macrophage ([2]; mouse bone marrow-derived M1 macrophages, channel listed per compound, general formula (6) dyes (Table 7)) | Peak position of M2 macrophage ([2]; mouse bone marrow-derived M2 macrophages, channel listed per compound, general formula (6) dyes (Table 7)) | subtype more strongly stained [2]
O=C(O)CCN1C(=O)/C(=C\c2ccc3c(c2)C2CCCC2N3Cc2ccccc2)SC1=S (stereo not shown) [compound (3)] | 0.257 | B (the compound is good in the subtype identification (namely, the resolution R is 0.15 or more and less than 0.5)) | 9.63 | 12.3 | M2 | 0.622 | 11.2 | 25.0 | A (The compound is very good in the subtype identification (namely, the resolution R is 0.5 or more)) | – | – | – | – | – | – | –
CCN1c2ccc(/C=C3/SC(=S)N(CCC(=O)O)C3=O)cc2C2CCCC21 (stereo not shown) [(15)] | 0.216 | B (the compound is good in the subtype identification (namely, the resolution R is 0.15 or more and less than 0.5)) | 5.62 | 7.4 | M2 | 0.700 | 7.52 | 10.5 | A (The compound is very good in the subtype identification (namely, the resolution R is 0.5 or more)) | – | – | – | – | – | – | –
O=C(O)CN1C(=O)/C(=C\c2cc(Br)c3c(c2)C2CCCC2N3c2ccc(Br)cc2)SC1=S (stereo not shown) [(12)] | 0.276 | B (the compound is good in the subtype identification (namely, the resolution R is 0.15 or more and less than 0.5)) | 37.4 | 46.5 | M2 | 0.594 | 50.7 | 97.7 | A (The compound is very good in the subtype identification (namely, the resolution R is 0.5 or more)) | – | – | – | – | – | – | –
COc1ccc(N2c3ccc(/C=C4\C(=O)NC(=O)C(C#N)=C4C)cc3C3CCCC32)cc1 (stereo not shown) [(2), reference compound] | – | – | – | – | – | 0.007 | 0.86 | 1.05 | C (the compound cannot identify the subtypes (namely, the resolution R is less than 0.15)) | no difference in the staining intensity | no difference in the staining intensity | – | – | – | – | –
COC(=O)CCC(C(=O)OC)N1C(=O)/C(=C\c2ccc3c(c2)C2CCCC2N3c2ccc(OC)cc2)SC1=S (stereo not shown) [compound (4)] | 0.372 | B (the compound is good in the subtype identification (namely, the resolution R is 0.15 or more and less than 0.5)) | 26.5 | 17.9 | M1 | 1.125 | 158 | 45.4 | A (The compound is very good in the subtype identification (namely, the resolution R is 0.5 or more)) | – | – | – | – | – | – | –
CN1/C(=C/C2=C([O-])C(=C/C3=[N+](C)c4ccccc4C3(C)C)/C2=O)C(C)(C)c2ccccc21 [compound (113)] | – | – | – | – | – | – | – | – | – | – | – | 0.857 | A (The compound is very good in the subtype identification (namely, the resolution R is 0.5 or more)) | 9.05 | 21.39 | the M2 macrophage shows a higher fluorescence intensity in the APC-Cy7 channel than the M1 macrophage; also recorded: the M2 macrophages are more strongly stained than the M1 macrophages
CCN1C(=O)S/C(=c2/s/c(=C/c3ccc4c(c3)C3CCCC3N4Cc3ccccc3)c(=O)n2CC(=O)O)C1=O (stereo not shown) [(43)] | – | – | – | – | – | 0.411 | 7.14 | 13.0 | B (the compound is good in the subtype identification (namely, the resolution R is 0.15 or more and less than 0.5)) | – | – | – | – | – | – | –
CCOC(=O)CN1C(=O)/C(=C\c2cc(Br)c3c(c2)C2CCCC2N3c2ccc(Br)cc2)SC1=S (stereo not shown) [(49)] | – | – | – | – | – | 0.486 | 3.26 | 5.02 | B (the compound is good in the subtype identification (namely, the resolution R is 0.15 or more and less than 0.5)) | – | – | – | – | – | – | –
COc1ccc(N2c3ccc(/C=C4\C(=O)N(c5ccccc5)N=C4C(=O)O)cc3C3CCCC32)cc1 (stereo not shown) [compound (33)] | – | – | – | – | – | 0.522 | 5.00 | 9.05 | A (The compound is very good in the subtype identification (namely, the resolution R is 0.5 or more)) | – | – | – | – | – | – | the M2 macrophages are more strongly stained than the M1 macrophages
CCN1C(=O)/C(=c2\s/c(=C/c3ccc4c(c3)CC(C)N4CC)c(=O)n2CC(=O)O)SC1=S (stereo not shown) [(57)] | – | – | – | – | – | 0.167 | 4.20 | 3.59 | B (the compound is good in the subtype identification (namely, the resolution R is 0.15 or more and less than 0.5)) | – | – | – | – | – | – | –
